Results: the NIST ThermoML archive (doi:10.1021/je060203o)

Settings: Liquid; for mass density: Vibrating tube method; for speed of sound: Pulse-echo method

CCCn1cc[n+](C)c1.O=S(=O)([N-]S(=O)(=O)C(F)(F)F)C(F)(F)F
Settings	mass density [kg/m3]	speed of sound [m/s]
298.15 K, 100 kPa	1475.7	–
298.15 K, 500 kPa	–	1236.4
298.15 K, 1830 kPa	1476.98	–
298.15 K, 3500 kPa	–	1246.5
298.15 K, 7000 kPa	–	1258.2
298.15 K, 10000 kPa	–	1268
298.15 K, 10020 kPa	1483.13	–
298.15 K, 13500 kPa	–	1279.2
298.15 K, 14980 kPa	1486.69	–
298.15 K, 17000 kPa	–	1290
298.15 K, 19750 kPa	1490.06	–
298.15 K, 20000 kPa	–	1299.2
298.15 K, 25860 kPa	1494.22	–
298.15 K, 30000 kPa	–	1329.2
298.15 K, 31480 kPa	1497.95	–
298.15 K, 37770 kPa	1502.01	–
298.15 K, 40000 kPa	–	1357.5
298.15 K, 44170 kPa	1506.01	–
298.15 K, 50000 kPa	–	1384.5
298.15 K, 50750 kPa	1509.97	–
298.15 K, 59590 kPa	1515.1	–
298.15 K, 60000 kPa	–	1410.3
298.15 K, 70000 kPa	–	1435.1
298.15 K, 80000 kPa	–	1459
298.15 K, 90000 kPa	–	1482.1
298.15 K, 100000 kPa	–	1504.5
298.15 K, 112500 kPa	–	1531.7
298.15 K, 125000 kPa	–	1557.6
298.15 K, 137510 kPa	–	1582.8
298.15 K, 150000 kPa	–	1606
298.15 K, 162500 kPa	–	1629.6
298.15 K, 175000 kPa	–	1652.5
298.15 K, 187500 kPa	–	1674.5
298.15 K, 200000 kPa	–	1695.9
299.15 K, 100 kPa	1474.62	–
299.15 K, 1830 kPa	1475.87	–
299.15 K, 10020 kPa	1482.12	–
299.15 K, 14980 kPa	1485.68	–
299.15 K, 19750 kPa	1489.01	–
299.15 K, 25860 kPa	1493.18	–
299.15 K, 31480 kPa	1496.89	–
299.15 K, 37770 kPa	1500.95	–
299.15 K, 44170 kPa	1504.95	–
299.15 K, 50750 kPa	1509.07	–
299.15 K, 59590 kPa	1514.22	–
300.15 K, 100 kPa	1473.66	–
300.15 K, 1830 kPa	1474.94	–
300.15 K, 10020 kPa	1481.1	–
300.15 K, 14980 kPa	1484.68	–
300.15 K, 19750 kPa	1488.07	–
300.15 K, 25860 kPa	1492.27	–
300.15 K, 31480 kPa	1496.03	–
300.15 K, 37770 kPa	1500.11	–
300.15 K, 44170 kPa	1504.13	–
300.15 K, 50750 kPa	1508.14	–
300.15 K, 59590 kPa	1513.35	–
301.15 K, 100 kPa	1472.79	–
301.15 K, 1830 kPa	1474.07	–
301.15 K, 10020 kPa	1480.19	–
301.15 K, 14980 kPa	1483.74	–
301.15 K, 19750 kPa	1487.1	–
301.15 K, 25860 kPa	1491.35	–
301.15 K, 31480 kPa	1495.08	–
301.15 K, 37770 kPa	1499.16	–
301.15 K, 44170 kPa	1503.18	–
301.15 K, 50750 kPa	1507.27	–
301.15 K, 59590 kPa	1512.51	–
302.15 K, 100 kPa	1471.92	–
302.15 K, 1830 kPa	1473.15	–
302.15 K, 10020 kPa	1479.27	–
302.15 K, 14980 kPa	1482.84	–
302.15 K, 19750 kPa	1486.21	–
302.15 K, 25860 kPa	1490.42	–
302.15 K, 31480 kPa	1494.19	–
302.15 K, 37770 kPa	1498.29	–
302.15 K, 44170 kPa	1502.37	–
302.15 K, 50750 kPa	1506.46	–
302.15 K, 59590 kPa	1511.74	–
303.15 K, 100 kPa	1471.14	–
303.15 K, 1830 kPa	1472.39	–
303.15 K, 10020 kPa	1478.49	–
303.15 K, 14980 kPa	1482	–
303.15 K, 19750 kPa	1485.41	–
303.15 K, 25860 kPa	1489.57	–
303.15 K, 31480 kPa	1493.32	–
303.15 K, 37770 kPa	1497.43	–
303.15 K, 44170 kPa	1501.5	–
303.15 K, 50750 kPa	1505.6	–
303.15 K, 59590 kPa	1510.93	–
308.15 K, 100 kPa	1466.83	–
308.15 K, 500 kPa	–	1214
308.15 K, 1830 kPa	1468.1	–
308.15 K, 3500 kPa	–	1224.4
308.15 K, 7000 kPa	–	1236.2
308.15 K, 10000 kPa	–	1246.2
308.15 K, 10020 kPa	1474.12	–
308.15 K, 13500 kPa	–	1257.6
308.15 K, 14980 kPa	1477.65	–
308.15 K, 17000 kPa	–	1268.6
308.15 K, 19750 kPa	1480.89	–
308.15 K, 20000 kPa	–	1278
308.15 K, 25860 kPa	1485.18	–
308.15 K, 30000 kPa	–	1308.6
308.15 K, 31480 kPa	1489	–
308.15 K, 37770 kPa	1493.05	–
308.15 K, 40000 kPa	–	1337.1
308.15 K, 44170 kPa	1497.15	–
308.15 K, 50000 kPa	–	1364.7
308.15 K, 50750 kPa	1501.36	–
308.15 K, 59590 kPa	1506.81	–
308.15 K, 60000 kPa	–	1391
308.15 K, 70000 kPa	–	1416.2
308.15 K, 80000 kPa	–	1440.3
308.15 K, 90000 kPa	–	1463.7
308.15 K, 100000 kPa	–	1486.4
308.15 K, 112500 kPa	–	1513.6
308.15 K, 125000 kPa	–	1539.9
308.15 K, 137510 kPa	–	1565.2
308.15 K, 150000 kPa	–	1589.6
308.15 K, 162500 kPa	–	1613.3
308.15 K, 175000 kPa	–	1636.3
308.15 K, 187500 kPa	–	1658.6
308.15 K, 200000 kPa	–	1680.4
313.15 K, 100 kPa	1462.07	–
313.15 K, 1830 kPa	1463.28	–
313.15 K, 10020 kPa	1469.31	–
313.15 K, 14980 kPa	1472.86	–
313.15 K, 19750 kPa	1476.15	–
313.15 K, 25860 kPa	1480.43	–
313.15 K, 31480 kPa	1484.36	–
313.15 K, 37770 kPa	1488.4	–
313.15 K, 44170 kPa	1492.56	–
313.15 K, 50750 kPa	1496.83	–
313.15 K, 59590 kPa	1502.49	–
318.15 K, 100 kPa	1457.05	–
318.15 K, 500 kPa	–	1192.3
318.15 K, 1830 kPa	1458.31	–
318.15 K, 3500 kPa	–	1202.9
318.15 K, 7000 kPa	–	1215
